“And” between values parts separate entries of the source, which are not always exact repeats. Equal entries are not always repeated.
System: 227483-062-R1-J1-PDC complex spheroids with HUVEC/MSC, viability
Assay: Anticancer human tumor 227483-062-R1-J1-PDC patient-derived pancreatic carcinoma cell line growth inhibition [CLK]
Conditions: for viability, T/C: stronger effect = lower value
Procedure, shortened: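 Patient-derived tumor cells grown as complex spheroids with HUVEC endothelial cells and mesenchymal stem cells, treated with drug combinations. Concentrations descend in half-log steps from near clinical Cmax, or from 10 microM if Cmax unknown.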

[1] = curve of first compound, second compound 0.0316 µM
[2] = curve of first compound, second compound 0.1 µM
[3] = curve of first compound, second compound 0.316 µM
[4] = curve of first compound, second compound 1 µM
[5] = curve of first compound, second compound 3.16 µM
[6] = curve of first compound, second compound 10 µM
[7] = second compound 0.0316 µM, first compound 0.0316 µM
[8] = second compound 0.0316 µM, first compound 0.1 µM
[9] = second compound 0.0316 µM, first compound 0.316 µM
[10] = second compound 0.0316 µM, first compound 1 µM
[11] = second compound 0.0316 µM, first compound 3.16 µM
[12] = second compound 0.0316 µM, first compound 10 µM
[13] = second compound 0.1 µM, first compound 0.0316 µM
[14] = second compound 0.1 µM, first compound 0.1 µM
[15] = second compound 0.1 µM, first compound 0.316 µM
[16] = second compound 0.1 µM, first compound 1 µM
[17] = second compound 0.1 µM, first compound 3.16 µM
[18] = second compound 0.1 µM, first compound 10 µM
[19] = second compound 0.316 µM, first compound 0.0316 µM
[20] = second compound 0.316 µM, first compound 0.1 µM
[21] = second compound 0.316 µM, first compound 0.316 µM
[22] = second compound 0.316 µM, first compound 1 µM
[23] = second compound 0.316 µM, first compound 3.16 µM
[24] = second compound 0.316 µM, first compound 10 µM
[25] = second compound 1 µM, first compound 0.0316 µM
[26] = second compound 1 µM, first compound 0.1 µM
[27] = second compound 1 µM, first compound 0.316 µM
[28] = second compound 1 µM, first compound 1 µM
[29] = second compound 1 µM, first compound 3.16 µM
[30] = second compound 1 µM, first compound 10 µM
[31] = second compound 3.16 µM, first compound 0.0316 µM
[32] = second compound 3.16 µM, first compound 0.1 µM
[33] = second compound 3.16 µM, first compound 0.316 µM
[34] = second compound 3.16 µM, first compound 1 µM
[35] = second compound 3.16 µM, first compound 3.16 µM
[36] = second compound 3.16 µM, first compound 10 µM
[37] = second compound 10 µM, first compound 0.0316 µM
[38] = second compound 10 µM, first compound 0.1 µM
[39] = second compound 10 µM, first compound 0.316 µM
[40] = second compound 10 µM, first compound 1 µM
[41] = second compound 10 µM, first compound 3.16 µM
[42] = second compound 10 µM, first compound 10 µM
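Also: spheroids exposed to compounds for seven days before readout.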
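For viability, T/C in this document: percent of DMSO vehicle control luminescence as 100% viability.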

## CCN1CCN(Cc2ccc(Nc3ncc(F)c(-c4cc(F)c5nc(C)n(C(C)C)c5c4)n3)nc2)CC1
Compound 0.00316 µM
  viability, T/C: 93.6% and 83.6%
Compound 0.01 µM
  viability, T/C: 110% and 94.8%
Compound 0.0316 µM
  viability, T/C: 92.8% and 79.4%
Compound 0.1 µM
  viability, T/C: 98.2% and 76.2%
Compound 0.316 µM
  viability, T/C: 95.1% and 73.4%
Compound 1 µM
  viability, T/C: 88.3% and 82%
Curve of compound
  IC50: > 1000 nM

## Nc1ccccc1NC(=O)c1ccc(CNC(=O)OCc2cccnc2)cc1 + CNC(=O)c1ccc(Nc2nc(OC3CCCC3)c3c(-c4ccc5nc(C)oc5c4)c[nH]c3n2)c(OC)c1
[1]
  IC50: > 10000 nM
[2]
  IC50: 8510 nM
[3]
  IC50: 5130 nM
[4]
  IC50: 531 nM
[5]
  IC50: < 31.6 nM
[6]
  IC50: < 31.6 nM
[7]
  viability, T/C: 90.9%
[8]
  viability, T/C: 88.5%
[9]
  viability, T/C: 109%
[10]
  viability, T/C: 111%
[11]
  viability, T/C: 118%
[12]
  viability, T/C: 75.8%
[13]
  viability, T/C: 73.3%
[14]
  viability, T/C: 88.6%
[15]
  viability, T/C: 94.6%
[16]
  viability, T/C: 107%
[17]
  viability, T/C: 96.5%
[18]
  viability, T/C: 43%
[19]
  viability, T/C: 82.1%
[20]
  viability, T/C: 72.9%
[21]
  viability, T/C: 78.7%
[22]
  viability, T/C: 78.3%
[23]
  viability, T/C: 65.8%
[24]
  viability, T/C: 28%
[25]
  viability, T/C: 53.6%
[26]
  viability, T/C: 45.7%
[27]
  viability, T/C: 53.4%
[28]
  viability, T/C: 50.1%
[29]
  viability, T/C: 40.6%
[30]
  viability, T/C: 14.5%
[31]
  viability, T/C: 37.4%
[32]
  viability, T/C: 44.2%
[33]
  viability, T/C: 39.7%
[34]
  viability, T/C: 30.1%
[35]
  viability, T/C: 17.3%
[36]
  viability, T/C: 7.51%
[37]
  viability, T/C: 33%
[38]
  viability, T/C: 30.8%
[39]
  viability, T/C: 32.2%
[40]
  viability, T/C: 19.4%
[41]
  viability, T/C: 16.6%
[42]
  viability, T/C: 5.89%

## CC1COCCN1c1cc(C2(S(C)(=N)=O)CC2)nc(-c2ccnc3[nH]ccc23)n1 (stereo unspecified) + CN1CCN(c2cc(C(=O)Nc3cc4cc(-c5cnn(C)c5)ccc4cn3)ccn2)CC1
[1]
  IC50: 8890 nM
[2]
  IC50: 1120 nM
[3]
  IC50: < 31.6 nM
[4]
  IC50: < 31.6 nM
[5]
  IC50: < 31.6 nM
[6]
  IC50: < 31.6 nM
[7]
  viability, T/C: 82.8%
[8]
  viability, T/C: 98.1%
[9]
  viability, T/C: 93.7%
[10]
  viability, T/C: 84.6%
[11]
  viability, T/C: 85.3%
[12]
  viability, T/C: 45.8%
[13]
  viability, T/C: 60.5%
[14]
  viability, T/C: 74.2%
[15]
  viability, T/C: 60.2%
[16]
  viability, T/C: 51.9%
[17]
  viability, T/C: 33.3%
[18]
  viability, T/C: 21.7%
[19]
  viability, T/C: 6.08%
[20]
  viability, T/C: 4.49%
[21]
  viability, T/C: 4.56%
[22]
  viability, T/C: 4.4%
[23]
  viability, T/C: 6.8%
[24]
  viability, T/C: 2.88%
[25]
  viability, T/C: 1.88%
[26]
  viability, T/C: 2.55%
[27]
  viability, T/C: 1.66%
[28]
  viability, T/C: 3.91%
[29]
  viability, T/C: 2.05%
[30]
  viability, T/C: 1.59%
[31]
  viability, T/C: 4.44%
[32]
  viability, T/C: 3.71%
[33]
  viability, T/C: 4.61%
[34]
  viability, T/C: 3.67%
[35]
  viability, T/C: 2.93%
[36]
  viability, T/C: 2.93%
[37]
  viability, T/C: 3.62%
[38]
  viability, T/C: 2.17%
[39]
  viability, T/C: 2.15%
[40]
  viability, T/C: 1.98%
[41]
  viability, T/C: 2.16%
[42]
  viability, T/C: 3.07%
